Experimental data as given in patent publication US20200002354A1, “HEXAHYDROPYRAZINOBENZ- OR -PYRIDO-OXAZEPINES CARRYING AN OXYGEN-CONTAINING SUBSTITUENT AND USE THEREOF IN THE TREATMENT OF 5-HT2C-DEPENDENT DISORDERS” (AbbVie Deutschland GmbH & Co. KG, priority 2015, published 2020).
pEC50: −log10 of the molar value.

Assays:
5-HT2C receptor = molecular target: T1, 5-HT2C receptor (Homo sapiens, UniProt P28335); experiment: Human 5-HT2C functional assay (beta-arrestin2 recruitment, U2OS_HTR2C_β-Arrestin cells); assay type: cell-based; conditions: for pEC50: Potency (EC50 5-HT2C) in functional assay, agonism, read-out: EC50 5-HT2C; for Emax: relative efficacy vs maximal effect induced by 5-HT (defined as 100%)
T1 construct: host or cells: U2OS
Description: 1. Human 5-HT2C Functional Assay
The functional activity of compounds of formula I was assayed by incubation with U2OS_HTR2C_β-Arrestin cells (DiscoverX, 93-0289C3) to induce beta-arrestin2 recruitment to the 5-HT2C receptor. The agonist-induced recruitment and proximity of the receptor and beta-arrestin2 leads to complementation and formation of active β-galactosidase. The enzyme complementation results in enzyme activity, which is measured following the termination of the agonist incubation using DiscoveRx's detection reagent, which contains a chemiluminescent substrate which produces a high intensity signal. Cells were plated and a medium-change to a 1% serum containing medium was performed 24 h later. The next day, test compounds were added and incubated for 1.5 h before addition of detection reagent.
The response produced was measured and compared with the response produced by 10 [mu]M 5-HT or the maximal effect induced by 5-HT (defined as 100%) to which it was expressed as a percentage response (relative efficacy).

[1] = Metabolic stability in human liver microsomes, unbound intrinsic clearance; assay type: in vitro ADME; conditions: liver microsomes, pH 7.4; unbound intrinsic clearance (human); Clint unbound = Cl int/fu mic; read-out: Cl int, mic unb. (h)
Description: Samples of the tested compounds (0.5 μM) were preincubated together with human liver microsomes (0.25 mg of microsomal protein/mL) in 0.05 M potassium phosphate buffer of pH 7.4 in microtiter plates at 37° C. for 5 minutes. The reaction was started by adding NADPH (1.0 mM). After 0, 5, 10, 15, 20 and 30 minutes, an aliquot was removed, the reaction was cooled and stopped by adding twice the amount of quench solution consisting of acetonitrile/methanol 1:1, and containing 0.2 μM carbutamide as internal standard. The samples were frozen until analyzed. The remaining concentration of undegraded test substance was determined by liquid chromatography-tandem mass spectrometry (LC-MS/MS). The half-life (t1/2) was determined from the gradient of the ratio of the signal of (test substance/internal standard)/unit time plot, allowing the calculation of the half-life of the test substance, assuming first order kinetics, from the decrease in the concentration of the compound with time. The microsomal clearance (mClint) was calculated as follows: mClint=((ln(2)/t ½)/Microsomal Protein Concentration (mg/ml))*1000, leading to the unit of uL/min/mg. The scaled clearance (mClin_scaled) was calculated as mCLint_scaled=m CLint*(Microsomal Yield (mg/kg BW))/1000000*60, leading to the units L/h/kg. The Microsomal Yield is defined by the specifics of the used microsomes. Calculations were modified from references: Di, The Society for Biomolecular Screening, 2003, 453-462; Obach, D M D, 1999 vol 27. N 11, 1350-1359.
Calculation of Unbound Intrinsic Clearance
C1int unbound=C1 int/fu mic

human 5-HT2A receptor = molecular target: T2, human 5-HT2A receptor (Homo sapiens, UniProt P28223); experiment: Human 5-HT2A functional assay (calcium mobilisation in CHO-K1 cells, FLIPR); assay type: cell-based; conditions: based on agonism: EC50 5-HT2A/EC50 5-HT2C
T2 construct: expressed in transfected cells; host or cells: CHO-K1
Description: 2. Human 5-HT2A Functional Assay
Functional activity on the 5-HT2A receptor was determined by testing the effect of the compounds I on calcium mobilisation in CHO-K1 cells, stably transfected with human 5-HT2A receptor. Cells were seeded into sterile black 384-well plates with clear bottom at 25,000 cells/well in a volume of 25 μl and grown for 5-6 hours at 37° C., in 5% CO2 in tissue culture medium (“Ultra CHO” by LONZA), containing 1% dialysed FCS and 50 μg/ml gentamicin (Invitrogen). After this incubation, medium was replaced by a serum free version of the same tissue culture medium followed by incubation overnight at 37° C. and in 5% CO2. Cells were then loaded with a fluorescent calcium-sensitive dye in the presence of 0.07% probenecid for an hour at 37° C., according to the manufacturer's protocol (Ca5-Assay Kit, Molecular Devices), followed by an additional 60 min incubation at room temperature. Serial compound dilutions (final concentrations of 10^−10 to 10^−5M, prepared in HBSS+50 mM HEPES) were first added to the cells alone (“first addition” to assess agonism on the 5-HT2A receptor), then after 8 min, serotonin was added to the same wells at a final concentration of 3×10^−8 M (“second addition” to see potential antagonistic effect) and the maximal calcium response was determined using a FLIPR® Tetra instrument (Molecular Devices) in each of the two steps. The relative efficacy of the compounds was calculated as a percentage of the maximal effect induced by serotonin alone (defined as 100%). To determine EC50/IC50 values, concentration-response curves were fitted using a four-parameter logistic equation (IDBS Biobookml). Kb values were calculated from IC50 values, according to Cheng & Prusoff

human 5-HT2B receptor = molecular target: T3, human 5-HT2B receptor (Homo sapiens, UniProt P41595); experiment: Human 5-HT2B functional assay (calcium mobilisation in CHO-FlpIn cells, FLIPR); assay type: cell-based; conditions: based on agonism: EC50 5-HT2B/EC50 5-HT2C
T3 construct: expressed in transfected cells; host or cells: CHO-FlpIn
Description: 3. Human 5-HT2B Functional Assay
Functional activity on the 5-HT2B receptor was determined by testing the effect of the compounds I on calcium mobilisation in CHO-FlpIn cells, stably transfected with human 5-HT2B receptor. Cells were seeded into sterile black 384-well plates with clear bottom at 30,000 cells/well in a volume of 25 μl and grown overnight at 37° C., in 5% CO2 in tissue culture medium (“CHO-S-SFM II” by Invitrogen), containing 1% dialysed FCS and 50 μg/ml gentamicin (Invitrogen). On the next morning, medium was replaced by a serum free version of the same tissue culture medium for a further incubation for 4 hours at 37° C. and in 5% CO2. Cells were then loaded with a fluorescent calcium-sensitive dye in the presence of 0.07% probenecid for an hour at 37° C., according to the manufacturer's protocol (Ca5-Assay Kit, Molecular Devices), followed by an additional 60 min incubation at room temperature. Serial compound dilutions (final concentrations of 10^−10 to 10^−5M, prepared in HBSS+50 mM HEPES) were first added to the cells alone (“first addition” to assess agonism on the 5-HT2B receptor), then after 8 min, serotonin was added to the same wells at a final concentration of 10^−8 M (“second addition” to see potential antagonistic effect) and the maximal calcium response was determined using a FLIPR® Tetra instrument (Molecular Devices) in each of the two steps. The relative efficacy of the compounds was calculated as a percentage of the maximal effect induced by serotonin alone (defined as 100%). To determine EC50/IC50 values, concentration-response curves were fitted using a four-parameter logistic equation (IDBS Biobookml). Kb values were calculated from IC50 values, according to Cheng & Prusoff

T3 sequence (P41595 whole entry): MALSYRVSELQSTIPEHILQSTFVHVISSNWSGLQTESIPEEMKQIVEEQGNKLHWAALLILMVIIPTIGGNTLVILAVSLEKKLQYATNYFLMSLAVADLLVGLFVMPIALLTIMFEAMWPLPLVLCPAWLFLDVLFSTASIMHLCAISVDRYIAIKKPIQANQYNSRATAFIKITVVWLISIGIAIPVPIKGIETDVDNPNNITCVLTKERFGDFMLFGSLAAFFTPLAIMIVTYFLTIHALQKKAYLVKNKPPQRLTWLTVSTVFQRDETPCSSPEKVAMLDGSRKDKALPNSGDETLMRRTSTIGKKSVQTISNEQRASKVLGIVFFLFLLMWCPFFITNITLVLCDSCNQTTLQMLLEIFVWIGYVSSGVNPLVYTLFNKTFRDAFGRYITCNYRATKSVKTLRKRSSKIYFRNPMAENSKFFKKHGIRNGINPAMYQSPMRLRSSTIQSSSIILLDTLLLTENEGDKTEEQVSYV
T1 sequence (P28335 33-458): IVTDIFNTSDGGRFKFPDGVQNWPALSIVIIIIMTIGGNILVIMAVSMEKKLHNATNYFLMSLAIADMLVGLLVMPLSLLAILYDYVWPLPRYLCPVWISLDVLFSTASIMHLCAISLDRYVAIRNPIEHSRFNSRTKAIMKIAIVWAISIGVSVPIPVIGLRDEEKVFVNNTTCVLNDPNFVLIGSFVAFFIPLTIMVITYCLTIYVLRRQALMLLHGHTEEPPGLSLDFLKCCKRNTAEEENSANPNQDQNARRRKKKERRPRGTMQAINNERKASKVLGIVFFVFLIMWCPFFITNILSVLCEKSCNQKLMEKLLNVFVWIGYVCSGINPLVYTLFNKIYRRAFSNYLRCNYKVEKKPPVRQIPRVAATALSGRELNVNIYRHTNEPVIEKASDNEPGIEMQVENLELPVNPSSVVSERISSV
T1 sequence (P32121 whole entry partner): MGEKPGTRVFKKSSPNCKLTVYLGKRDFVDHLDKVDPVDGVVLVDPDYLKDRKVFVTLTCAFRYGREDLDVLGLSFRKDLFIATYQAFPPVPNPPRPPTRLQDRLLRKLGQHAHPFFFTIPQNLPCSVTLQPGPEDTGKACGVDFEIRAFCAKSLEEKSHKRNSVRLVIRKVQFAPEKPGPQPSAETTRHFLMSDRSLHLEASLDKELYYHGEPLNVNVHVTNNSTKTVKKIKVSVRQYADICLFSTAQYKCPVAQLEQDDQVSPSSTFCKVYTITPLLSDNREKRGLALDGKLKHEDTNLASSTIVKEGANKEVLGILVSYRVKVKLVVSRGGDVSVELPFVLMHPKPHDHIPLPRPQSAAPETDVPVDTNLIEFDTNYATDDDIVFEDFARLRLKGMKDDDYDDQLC
T2 sequence (P28223 whole entry): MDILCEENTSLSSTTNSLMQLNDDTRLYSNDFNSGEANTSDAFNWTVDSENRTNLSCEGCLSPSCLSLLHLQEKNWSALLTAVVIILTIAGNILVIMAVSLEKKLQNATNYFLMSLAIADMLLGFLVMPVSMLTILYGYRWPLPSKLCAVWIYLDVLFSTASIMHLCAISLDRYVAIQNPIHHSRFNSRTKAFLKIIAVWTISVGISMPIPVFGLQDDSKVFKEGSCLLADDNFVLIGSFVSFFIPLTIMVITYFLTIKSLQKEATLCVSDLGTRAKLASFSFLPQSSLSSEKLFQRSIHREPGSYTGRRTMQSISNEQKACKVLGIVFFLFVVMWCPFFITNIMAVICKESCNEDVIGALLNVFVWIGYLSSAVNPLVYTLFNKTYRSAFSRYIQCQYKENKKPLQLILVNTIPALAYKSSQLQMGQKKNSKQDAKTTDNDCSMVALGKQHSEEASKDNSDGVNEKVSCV

| Compound | pEC50 (5-HT2C receptor) | Emax (5-HT2C receptor) | CLint scaled at 0.5 μM [1] | Selectivity over 5-HT2A (human 5-HT2A receptor) | Selectivity over 5-HT2B (human 5-HT2B receptor) |
| --- | --- | --- | --- | --- | --- |
| COC[C@@H]1C[C@@H]2CNCCN2c2c(F)c(F)cc(C(F)(F)F)c2O1.Cl [Example 56, (4aR,6S)-10,11-Difluoro-6-(methoxymethyl)-8-(trifluoromethyl)-2,3,4,4a,5,6-hexahydro-1H-benzo[b]pyrazino[1,2-d][1,4]oxazepine hydrochloride] | 6.70 to 7.70 | > 70% | < 83.3 mL/min/kg | +++ (>100) | +++ (>100) |
| COC[C@@H]1C[C@@H]2CNCCN2c2cccc(Cl)c2O1.Cl [Example 1, (4aR,6S)-8-Chloro-6-(methoxymethyl)-2,3,4,4a,5,6-hexahydro-1H-pyrazino[2,1-d][1,5]benzoxazepine hydrochloride] | > 7.70 | > 70% | < 83.3 mL/min/kg | +++ (>100) | +++ (>100) |
| COC[C@@H]1C[C@@H]2CNCCN2c2c(F)c(F)c(F)c(Cl)c2O1.Cl [Example 55, (4aR,6S)-8-Chloro-9,10,11-trifluoro-6-(methoxymethyl)-2,3,4,4a,5,6-hexahydro-1H-pyrazino[2,1-d][1,5]benzoxazepine hydrochloride] | > 7.70 | > 70% |  | +++ (>100) | +++ (>100) |
| COC[C@@H]1C[C@@H]2CNCCN2c2cc(C(F)(F)F)cc(Cl)c2O1 [Example 45, (4aR,6S)-8-Chloro-6-(methoxymethyl)-10-(trifluoromethyl)-2,3,4,4a,5,6-hexahydro-1H-pyrazino[2,1-d][1,5]benzoxazepine] | 6.70 to 7.70 | > 70% | 83.3 to 833 mL/min/kg | +++ (>100) | +++ (>100) |
| COC[C@@H]1C[C@@H]2CNCCN2c2cc(C)cc(F)c2O1 [Example 33, (4aR,6S)-8-Fluoro-6-(methoxymethyl)-10-methyl-2,3,4,4a,5,6-hexahydro-1H-pyrazino[2,1-d][1,5]benzoxazepine] | 6.00 to 6.70 | 50 to 70% | < 83.3 mL/min/kg | + (from 10 to 30) | + (from 10 to 30) |
| COC[C@@H]1C[C@@H]2CNCCN2c2cc(F)cc(C#N)c2O1.Cl [Example 13, (4aR,6S)-10-Fluoro-6-(methoxymethyl)-2,3,4,4a,5,6-hexahydro-1H-pyrazino[2,1-d][1,5]benzoxazepine-8-carbonitrile hydrochloride] | 6.70 to 7.70 | > 70% | < 83.3 mL/min/kg | +++ (>100) | ++ (from >30 to 100) |
| COC[C@@H]1C[C@@H]2CNCCN2c2c(F)c(F)cc(C#N)c2O1.Cl [Example 28, (4aR,6S)-10,11-Difluoro-6-(methoxymethyl)-2,3,4,4a,5,6-hexahydro-1H-pyrazino[2,1-d][1,5]benzoxazepine-8-carbonitrile hydrochloride] | 6.70 to 7.70 | > 70% | < 83.3 mL/min/kg | ++ (from >30 to 100) | + (from 10 to 30) |
| COC[C@@H]1C[C@@H]2CNCCN2c2c(F)c(F)cc(C(F)F)c2O1.Cl [Example 26, (4aR,6S)-8-(Difluoromethyl)-10,11-difluoro-6-(methoxymethyl)-2,3,4,4a,5,6-hexahydro-1H-pyrazino[2,1-d][1,5]benzoxazepine hydrochloride] | > 7.70 | > 70% | < 83.3 mL/min/kg | +++ (>100) | +++ (>100) |
| COC[C@@H]1C[C@@H]2CNCCN2c2cc(F)cc(C(F)F)c2O1.Cl [Example 9, (4aR,6S)-8-(Difluoromethyl)-10-fluoro-6-(methoxymethyl)-2,3,4,4a,5,6-hexahydro-1H-pyrazino[2,1-d][1,5]benzoxazepine hydrochloride] | > 7.70 | > 70% | < 83.3 mL/min/kg | +++ (>100) | +++ (>100) |
| COC[C@@H]1C[C@@H]2CNCCN2c2c(F)c(F)c(OC)c(Cl)c2O1.Cl [Example 53, (4aR,6S)-8-Chloro-10,11-difluoro-9-methoxy-6-(methoxymethyl)-2,3,4,4a,5,6-hexahydro-1H-pyrazino[2,1-d][1,5]benzoxazepine hydrochloride] | 6.70 to 7.70 | 50 to 70% | 83.3 to 833 mL/min/kg | +++ (>100) | +++ (>100) |
| COC[C@H]1C[C@@H]2CNCCN2c2cc(F)cc(Cl)c2O1.Cl [Example 35, (4aR,6R)-8-Chloro-10-fluoro-6-(methoxymethyl)-2,3,4,4a,5,6-hexahydro-1H-pyrazino[2,1-d][1,5]benzoxazepine hydrochloride] | 6.70 to 7.70 | > 70% | < 83.3 mL/min/kg | ++ (from >30 to 100) | + (from 10 to 30) |
| COC[C@@H]1C[C@@H]2CNCCN2c2cc(OC)cc(Cl)c2O1.Cl [Example 44, (4aR,6S)-8-Chloro-10-methoxy-6-(methoxymethyl)-2,3,4,4a,5,6-hexahydro-1H-pyrazino[2,1-d][1,5]benzoxazepine hydrochloride] | 6.70 to 7.70 | > 70% | < 83.3 mL/min/kg |  | ++ (from >30 to 100) |
| COC[C@@H]1C[C@@H]2CNCCN2c2cc(Cl)cc(F)c2O1 [Example 25, (4aR,6S)-10-Chloro-8-fluoro-6-(methoxymethyl)-2,3,4,4a,5,6-hexahydro-1H-pyrazino[2,1-d][1,5]benzoxazepine] | 6.70 to 7.70 | > 70% | < 83.3 mL/min/kg | +++ (>100) |  |
